Results on 1 molecule are retold here after ChEMBL document CHEMBL5260842 (J Med Chem, 2019).

Usually IC50 stands for the point on the concentration scale where inhibition reaches its midpoint.

In assay [1] the target is T1, von Hippel-Lindau disease tumor suppressor/Androgen receptor (Homo sapiens, UniProt P10275+P40337). The assay can be described thus: Protac activity at VHL/AR in AR-positive human LNCaP cells assessed as induction of androgen receptor degradation at 0.1 uM incubated for 6 hrs by Western blot analysis (reference value: 0%). It is filed as cell-based.
Assay [2] deals with T1, von Hippel-Lindau disease tumor suppressor/Androgen receptor. Briefly: Protac activity at VHL/AR in AR-positive human VCaP cells assessed as reduction in protein level at 100 nM measured after 2 to 4 hrs by Western blot analysis. It is filed as cell-based. Particulars: time 2-4 hrs. For orientation: Immunoblotting shows a protein as a band on a membrane.
Assay [3] can be described thus: Downregulation of PSA mRNA expression in human VCaP cells at 10 nM measured after 24 hrs by regular serum based qRT-PCR analysis relative to control. It is filed as functional. In general terms: Real-time PCR tracks product formation cycle by cycle.
The test system of assay [4] is VCaP. Briefly: Downregulation of PSA mRNA expression in human VCaP cells measured after 24 hrs by regular serum based qRT-PCR analysis. It counts as functional, cell-based. The following applies: dose 1-1000 nM.
Assay [5] addresses T1, von Hippel-Lindau disease tumor suppressor/Androgen receptor. The assay can be described thus: Protac activity at VHL/AR in AR-positive human LNCaP cells assessed as induction of androgen receptor degradation at 0.01 uM incubated for 6 hrs by Western blot analysis (reference value: 0%). It counts as cell-based.
For assay [6], the system named is VCaP. The assay can be described thus: Downregulation of ERG gene expression in human VCaP cells measured after 24 hrs by regular serum based qRT-PCR analysis. It is filed as functional, cell-based. The following applies: dose 1-1000 nM.
Assay [7] concerns the target T1, von Hippel-Lindau disease tumor suppressor/Androgen receptor. The assay can be described thus: Protac activity at VHL/AR in AR-positive human LNCaP cells assessed as reduction in protein level at 100 nM measured after 2 to 4 hrs by Western blot analysis. It counts as cell-based. The following applies: time 2-4 hrs.
Assay [8] is described as follows: Downregulation of TMPRSS2 mRNA expression in human LNCaP cells at 10 nM measured after 24 hrs by qRT-PCR analysis relative to control. It is filed as functional.
The subject of assay [9] is LNCaP. Briefly: Potency index, ratio of enzalutamide IC50 to test compound IC50 for cytotoxicity against AR-positive human LNCaP cells assessed as inhibition of cell growth incubated for 7 days in presence of AR agonist, R1881 in charcoal stripped medium by WST-8 assay. It is filed as functional. Particulars: time 7 day. Background: Formazan colour is commonly taken as a measure of viable cells.

Assay [10] addresses T1, von Hippel-Lindau disease tumor suppressor/Androgen receptor. Briefly: Protac activity at VHL/AR in AR-positive human LNCaP cells assessed as induction of androgen receptor degradation at 100 nM preincubated with proteasome inhibitor, MG132 for 2 hrs followed by compound addition and measured after 6 hrs by Western blot analysis. It is filed as cell-based.
Assay [11] has as its system LNCaP. The assay can be described thus: Cytotoxicity against AR-positive human LNCaP cells assessed as inhibition of cell growth incubated for 7 days in presence of AR agonist, R1881 in charcoal stripped medium by WST-8 assay. It counts as functional, cell-based. Particulars: 168 h.

The source made the active and inactive calls. The rule behind the calls is not given here.

T1 sequence (P10275 whole entry, looked up): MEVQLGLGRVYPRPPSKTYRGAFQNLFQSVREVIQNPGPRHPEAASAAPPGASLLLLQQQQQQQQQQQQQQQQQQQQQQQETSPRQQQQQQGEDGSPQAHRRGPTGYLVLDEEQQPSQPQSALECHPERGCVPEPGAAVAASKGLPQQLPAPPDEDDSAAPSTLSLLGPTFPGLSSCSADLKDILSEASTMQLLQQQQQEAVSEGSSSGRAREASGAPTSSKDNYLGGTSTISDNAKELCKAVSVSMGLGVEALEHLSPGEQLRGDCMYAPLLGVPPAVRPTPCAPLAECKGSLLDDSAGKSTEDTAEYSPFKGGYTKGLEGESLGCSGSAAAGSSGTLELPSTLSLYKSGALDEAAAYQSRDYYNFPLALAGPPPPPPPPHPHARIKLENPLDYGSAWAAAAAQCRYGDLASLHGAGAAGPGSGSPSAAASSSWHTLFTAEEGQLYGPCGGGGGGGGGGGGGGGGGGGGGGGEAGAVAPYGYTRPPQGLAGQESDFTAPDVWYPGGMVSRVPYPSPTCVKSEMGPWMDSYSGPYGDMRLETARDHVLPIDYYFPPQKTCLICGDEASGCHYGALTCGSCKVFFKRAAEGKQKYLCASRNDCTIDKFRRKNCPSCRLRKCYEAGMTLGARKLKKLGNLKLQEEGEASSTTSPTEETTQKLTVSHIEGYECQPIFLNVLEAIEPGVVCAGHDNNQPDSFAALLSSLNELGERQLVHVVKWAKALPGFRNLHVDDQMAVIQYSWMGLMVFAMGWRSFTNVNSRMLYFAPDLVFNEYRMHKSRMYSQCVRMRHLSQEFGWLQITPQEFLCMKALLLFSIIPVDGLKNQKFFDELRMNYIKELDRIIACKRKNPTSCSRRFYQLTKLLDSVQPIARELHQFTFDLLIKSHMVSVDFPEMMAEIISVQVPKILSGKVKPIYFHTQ
T1 sequence (P40337 whole entry, looked up): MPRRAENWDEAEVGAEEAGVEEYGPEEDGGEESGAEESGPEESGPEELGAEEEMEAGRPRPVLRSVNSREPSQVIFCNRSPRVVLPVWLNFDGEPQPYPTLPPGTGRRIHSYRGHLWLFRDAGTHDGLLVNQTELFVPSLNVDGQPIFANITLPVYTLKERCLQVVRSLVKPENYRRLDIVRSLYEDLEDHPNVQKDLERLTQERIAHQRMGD

For `Cc1ncsc1-c1ccc([C@H](CC(=O)N2CCC(N3CCC(C#Cc4ccc(C(=O)N[C@H]5C(C)(C)[C@H](Oc6ccc(C#N)c(Cl)c6)C5(C)C)cc4)CC3)CC2)NC(=O)[C@@H]2C[C@@H](O)CN2C(=O)[C@@H](NC(=O)C2(F)CC2)C(C)(C)C)cc1`, the Activity is 99% in assay [1]; greater than 50% in assay [3]; “Dose-Dependent Effect” in [4]; 89% in [5]; “Dose-Dependent Effect” in assay [6]; greater than 50% in [8]. Moreover, the outcome in assay [2] and in assay [7] was Active. The “Ratio IC50” value in assay [9] is given as greater than 100. Moreover, the result in assay [10] was inactive. Besides, the IC50 in assay [11] was 0.25 nM.
